Values after ≈ are worked out from the molar mass of the structure shown. Where two headings read alike, the source gives them in different places.

A short description of series [1]: Chemical stability: obeticholic acid dimer production by HPLC (Test Example 3). The format is physicochemical. The procedure:
The following assessments were carried out to see whether, in cases where the amorphous form of obeticholic acid was used, there were any changes in chemical stability even after wet granulation. Specifically, measurements were taken of the amounts in which obeticholic acid dimers were produced (referred to in Patent Document 2 as “Impurity 6,” “3α (3α, 7α-dihydroxy-6α-ethyl-5β-cholan-24-oyloxy)-7α-hydroxy-6α-ethyl-5β-cholan-24-oic acid,” and “6ECDCA dimer”), which were confirmed to have a high propensity to increase in the preparation process and stability tests among known related substances of obeticholic acid disclosed in Patent Document 2, for example.
Test tubes containing the obeticholic acid prepared in Example 19 and the obeticholic acid 20 mg FC tablets of Example 4 were stored under the following conditions. The amounts in which obeticholic acid dimer was produced before (initial) and after storage were measured in accordance with Test Example 3. […]
4 weeks at 60° C. (closed)
Acetonitrile/water (9/1) was added in an amount of exactly 10 mL to test tubes that had been retrieved from storage, and the contents were ultrasonically treated to extract the obeticholic acid. Following centrifugation (10 min at 3000 rpm), the supernatant was made into samples for HPLC assay (500 μg/mL obeticholic acid).
One tablet containing 20 mg obeticholic acid (per tablet) that had been retrieved from storage was introduced into a 40 mL graduated measuring flask. Acetonitrile/water (9/1) was added to the graduated measuring flask, the contents were ultrasonically treated (10 min), and it was confirmed that the tablet had disintegrated. The contents were thoroughly shaken (60 min at 300 rpm) using a shaker, and were again ultrasonically treated to extract the obeticholic acid. Acetonitrile/water (9/1) were added to a constant volume, followed by centrifugation (10 min at 3000 rpm), and the supernatant was made into samples for HPLC assay (500 μg/mL).
50 mg of obeticholic acid was weighed out into a 100 mL graduated measuring flask and dissolved using acetonitrile/water (9/1) (500 μg/mL). The resulting solution was diluted with acetonitrile/water (9/1) to prepare 15.0 μg/mL (3.0%), 5.0 μg/mL (1.0%), and 0.25 μg/mL (0.05%) standard solutions.
The above three standard solutions were used to produce a calibration curve, and the obeticholic acid dimer contained in the sample solutions was quantified. The conditions of analysis are shown below.
Detector: Charged particle detector
Column: by Sigma-Aldrich, SUPELCO Discovery C8 (particle size: 5 μm; internal
Mobile phase: Acetonitrile/methanol/acetic acid aqueous solution (pH 3.0) mixture (8/1/1)

A short description of series [2]: Obeticholic acid solubility in various test solutions. Type of series: physicochemical. As to conditions: read-out: Dissolved concentration.

For the compound `CC[C@H]1[C@@H](O)[C@@H]2[C@H](CC[C@]3(C)[C@@H]([C@H](C)CCC(=O)O)CC[C@@H]23)[C@@]2(C)CC[C@@H](O)C[C@@H]12` [Obeticholic acid, 6α-ethyl-3α, 7 α-dihydroxy-5β-cholan-24-oic acid], the “Amount of obeticholic acid dimer production” value was 0.83% in series [1] (50° C., 85% RH open 4 W); 0.81% in series [1] (60° C. closed 4 W); 0.04% in series [1] (Initial). For the same compound, the “Increase in obeticholic acid dimer from initial product” value in series [1] (50° C., 85% RH open 4 W) is listed as 0.79%; in series [1] (60° C. closed 4 W), 0.77%. The solubility was 4.07 µg/mL (≈ 9.68 µM) in series [2] (JP1, pH 1.2, simulated gastric fluid); 306 µg/mL (≈ 729 µM) in series [2] (JP2, pH 6.8, aqueous buffer); 4.43 µg/mL (≈ 10.5 µM) in series [2] (aqueous buffer, pH 3.0 McIlvaine buffer); 4.66 µg/mL (≈ 11.1 µM) in series [2] (aqueous buffer, pH 4.0 McIlvaine buffer); 11.4 µg/mL (≈ 27.1 µM) in series [2] (aqueous buffer, pH 5.0 McIlvaine buffer); 60.6 µg/mL (≈ 144 µM) in series [2] (aqueous buffer, pH 6.0 McIlvaine buffer). For the same compound, in series [2] (water), the solubility stood at 21.4 µg/mL (≈ 51 µM).

The record behind these values is patent US11413295B2, “Oral preparation of obeticholic acid” (Intercept Pharmaceuticals, Inc., priority 2016, dated 2022).
